PMC3892729 (ACS Medicinal Chemistry Letters, 2013)
“Also recorded” adds a separate entry of the source.

What was measured:
human β2 adrenoceptor [1] = target: T1, human β2 adrenoceptor (Homo sapiens, UniProt P07550); experiment: SPR binding to captured β2 adrenoceptor, MNG detergent; conditions: for loss in activity / reduction of affinity versus parent fragment: SPR KD, MNG, I and J versus A, L versus F
human β2 adrenoceptor [2] = target: T1, human β2 adrenoceptor; experiment: SPR binding to captured β2 adrenoceptor, DDM detergent; conditions: read-out: SPR ka

T1 sequence (P07550 whole entry, the tested form may be a part): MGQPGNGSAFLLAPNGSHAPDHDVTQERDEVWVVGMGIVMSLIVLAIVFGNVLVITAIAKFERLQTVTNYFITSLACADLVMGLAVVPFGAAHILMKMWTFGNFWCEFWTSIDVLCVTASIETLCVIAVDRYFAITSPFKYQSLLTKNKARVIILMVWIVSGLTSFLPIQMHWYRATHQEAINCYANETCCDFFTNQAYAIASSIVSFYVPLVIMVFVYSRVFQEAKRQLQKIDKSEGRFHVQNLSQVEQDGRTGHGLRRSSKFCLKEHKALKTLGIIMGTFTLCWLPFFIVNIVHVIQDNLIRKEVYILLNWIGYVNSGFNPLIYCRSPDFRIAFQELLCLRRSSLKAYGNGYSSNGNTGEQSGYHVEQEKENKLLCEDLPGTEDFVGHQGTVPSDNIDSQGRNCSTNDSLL

| loss in activity / reduction of affinity versus parent fragment (human β2 adrenoceptor [1]) [fold] | Compound | also measured |
| --- | --- | --- |
| – | Cc1ccc2nc(C(F)(F)F)cc(N3CCOCC3)c2c1 [K] | KD (result in words) (human β2 adrenoceptor [1]; MNG detergent): ablation of activity; also recorded: no binding |
| – | CC(Cc1ccc(O)cc1)NCC(O)c1cc(O)cc(O)c1 (centres unmarked) [fenoterol] | kon (human β2 adrenoceptor [2]): 545000 M⁻¹ s⁻¹ |
| 50 | Cc1ccc2nc(C(F)(F)F)cc(N3CCN(C)CC3)c2c1 [I] | – |
| 2000 | Cc1ccc2nc(C(F)(F)F)cc(N3CCC(F)(F)CC3)c2c1 [J] | – |

| Compound | loss in activity / reduction of affinity versus parent fragment (human β2 adrenoceptor [1]) [fold] | also measured |
| --- | --- | --- |
| c1cc(N2CCNCC2)ccn1 [L] | 400 | – |
